# Assay results published in US20240248074A1, “METHOD AND SYSTEM FOR SINGLE-CELL BIOPHYSICAL PROFILING USING A MICROFLUIDIC DEVICE” (NANYANG TECHNOLOGICAL UNIVERSITY, priority 2021, published 2024).
# Entries after “also recorded” stand apart in the source; their conditions may differ. Read-outs that look alike come from different tables or passages of the source.
# Key:
# primary neutrophils [1] = experiment: Flow cytometric analysis of neutrophil activation markers and F-actin; format: cell-based, human; details: for CD11 b expression / CD66b expression: Example 4, 2 hr treatment (FIG. 14)
# Method: The staining protocols for leukocyte identification are similar as previously described^50. The samples were stained for 30 min at 4° C. with FITC-labelled anti-human CD11 b and allophycocyanin (APC)-labelled anti-human CD66b antibodies. Non-specific antibody binding was examined using corresponding isotype negative control antibodies. The cells were washed once prior to flow cytometry analysis. All antibodies were purchased from eBioscience (1:20 dilution) and analyzed using a BD LSR Fortessa flow cytometer (BD Biosciences).
# primary neutrophils [2] = experiment: Multi-parametric biophysical (impedance) profiling of primary neutrophils treated with stimuli; format: cell-based, human; details: for cell size: 2 hr treatment vs control (FIG. 13B, E); for correlation between CD66b expression and cell size: Example 5 (FIG. 20); for electrical size (cell size): 2 hr treatment (FIG. 17D); for nucleus opacity (|Z|12 MHz/|Z|0.3 MHz): 2 hr treatment (FIG. 17G); for electrical deformability index: 2 hr treatment vs untreated neutrophils (FIG. 17F); for UMAP projection of biophysical features (shift vs control): Example 6, 10 biophysical features (FIG. 21)
# primary neutrophils [3] = experiment: Annexin V/Propidium iodide (PI) live-dead staining, flow cytometry; format: cell-based, human; details: Example 5; STS 1 μM, 2 hr (FIG. 18)
# [4] = tested on: HL-60 (leukemia cell lines); format: cell-based
# HL-60 = experiment: Immunostaining and flow cytometric analysis of F-actin in HL-60; format: cell-based; details: treated HL-60 vs control (FIG. 10 B, D, E)
# Text: The effect of cytoskeleton disruptors, such as cytochalasin D (CytoD) and latrunculin B (LatB), on HL-60 deformability, was studied (FIG. 10 A-E).
# [5] = HL-60 treated with cytoskeleton disruptor vs DMSO treated control (FIG. 10)
Molecule,CD11 b expression (primary neutrophils [1]),CD66b expression (primary neutrophils [1]),cell size (primary neutrophils [2]; Example 4),correlation between CD66b expression and cell size (primary neutrophils [2]),electrical size (cell size) (primary neutrophils [2]; Example 5),nucleus opacity (|Z|12 MHz/|Z|0.3 MHz) (primary neutrophils [2]; Example 5),electrical deformability index (primary neutrophils [2]; Example 5),UMAP projection of biophysical features (shift vs control) (primary neutrophils [2]),"electrical deformability index [4, 5]",F-actin expression (HL-60),further results
"CCCCCCCCCCCCCC(=O)O[C@@H]1[C@@H](C)[C@@]2(O)[C@@H](C=C(CO)C[C@]3(O)C(=O)C(C)=C[C@@H]23)[C@@H]2C(C)(C)[C@]12OC(C)=O [PMA, Phorbol Myristate Acetate]",elevated expressions,elevated expressions,larger than control,increase in CD66b expression with cell size,largest increase in cell size,significant decrease in nucleus opacities,more deformable,strong biophysical changes,–,–,"impedance profile (cell size / opacity clusters) (primary neutrophils [2]; Example 4, PMA 200 nM, 2 hr): two distinct clusters; impedance profile (cell clusters / populations) (primary neutrophils [2]; Example 5, PMA 200 nM, 2 hr (FIG. 19)): two distinct cell clusters; also recorded: two distinct cell populations of different size and deformability"
"CN[C@@H]1C[C@H]2O[C@@](C)([C@@H]1OC)n1c3ccccc3c3c4c(c5c6ccccc6n2c5c31)C(=O)NC4 [STS, Staurosporine]",–,–,–,–,–,higher nucleus opacity,–,strong biophysical changes,–,–,"membrane opacity (primary neutrophils [2]; Example 5, 2 hr treatment vs control (FIG. 17E)): significant increase in membrane opacity; Annexin V / PI expression (primary neutrophils [3]): increased Annexin V expression"
C=C1[C@@H](C)[C@H]2[C@H](Cc3ccccc3)NC(=O)[C@]23[C@H](OC(C)=O)/C=C/[C@@](C)(O)C(=O)[C@@H](C)C/C=C/[C@H]3[C@@H]1O [cytochalasin D],–,–,–,–,–,–,–,–,higher electrical deformability index,decreased F-actin expression,–
"CSCC[C@H](NC=O)C(=O)N[C@@H](CC(C)C)C(=O)N[C@@H](Cc1ccccc1)C(=O)O [fMLP, N-Formylmethionyl-leucyl-phenylalanine]",elevated expressions,elevated expressions,larger than control,increase in CD66b expression with cell size,increased,–,negligible changes,smaller shifts in different directions,–,–,"F-actin expression (MFI) (primary neutrophils [1]; Example 5, 2 hr treatment (FIG. 17C)): highest F-actin expression; also recorded: increased F-actin expression; electrical deformability (deformability index) (primary neutrophils [2]; Example 4, 2 hr, fMLP 1 μM, glucose 30 mM, PMA 200 nM, vs untreated control (FIG. 13D)): stiffer cell properties"
C/C1=C/C(=O)O[C@@H]2C[C@@H](CC[C@H](C)/C=C\CC1)O[C@@](O)([C@@H]1CSC(=O)N1)C2 [latrunculin B],–,–,–,–,–,–,–,–,higher electrical deformability index,decreased F-actin expression,–
paraformaldehyde [PFA],–,–,–,–,–,–,–,–,–,–,cell size [4]: smaller cell size; electrical deformability index [4]: lower than untreated control
